Target: T1, CRF1 receptors (Homo sapiens, UniProt P34998)
T1 construct: endogenous in cells; host or cells: IMR-32 cells, transformed with 2.5 µM 5'-bromo-2'-deoxyuridine for 10 days; membrane preparation
T1 sequence (P34998 24-415): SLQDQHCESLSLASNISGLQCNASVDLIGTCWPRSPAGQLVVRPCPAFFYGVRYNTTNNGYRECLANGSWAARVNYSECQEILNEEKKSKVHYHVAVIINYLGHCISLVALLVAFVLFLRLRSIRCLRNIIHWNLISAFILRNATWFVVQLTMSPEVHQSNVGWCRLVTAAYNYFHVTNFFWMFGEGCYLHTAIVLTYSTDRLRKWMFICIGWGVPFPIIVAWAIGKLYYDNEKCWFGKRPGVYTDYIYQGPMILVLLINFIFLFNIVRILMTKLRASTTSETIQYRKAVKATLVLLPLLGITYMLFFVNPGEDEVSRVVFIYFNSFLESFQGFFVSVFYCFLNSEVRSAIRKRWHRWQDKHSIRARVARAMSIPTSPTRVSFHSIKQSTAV
Experiment: CRF1 receptor radioligand binding assay ([125I]-oCRF competition, IMR-32 cell membranes)
Details: IMR-32 cell membranes, [125I]-oCRF 100 pM; read-out: Ki (CRF-1R)
Procedure, shortened: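 Buffer: Tris pH 7.2 with MgCl2, BSA, Triton X-100, aprotinin, leupeptin; reaction stopped with ice-cold wash and filtered. Nonspecific binding set with 10 μM oCRF.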

Row | Ki [nM] | Structure (SMILES)
1 | < 1000 | CCCN(CCC1CC1)Cc1c(C(F)(F)F)nc2n(-c3c(C)cc(C)cc3C)c3ncccc3n12 [Example 230, (2-Cyclopropyl-ethyl)-propyl-[2-trifluoromethyl-8-(2,4,6-trimethyl-phenyl)-8H-1,3a,7,8-tetraaza-cyclopenta[α]inden-3-ylmethyl]-amine]
2 | < 1000 | CCCCN(CC)Cc1c(C(F)(F)F)nc2n(-c3c(C)cc(C)cc3C)c3ncccc3n12 [Example 231, Butyl-ethyl-[2-trifluoromethyl-8-(2,4,6-trimethyl-phenyl)-8H-1,3a,7,8-tetraaza-cyclopenta[α]inden-3-ylmethyl]-amine]
3 | < 1000 | Cc1cc(C)c(-n2c3ncccc3n3c(CN(CCC4CC4)CC(F)(F)F)c(C(F)(F)F)nc23)c(C)c1 [Example 232, (2-Cyclopropyl-ethyl)-(2,2,2-trifluoro-ethyl)-[2-trifluoromethyl-8-(2,4,6-trimethyl-phenyl)-8H-1,3a,7,8-tetraaza-cyclopenta[α]inden-3-ylmethyl]-amine]
4 | < 10000 | CCN(Cc1ccccc1)Cc1c(C(F)(F)F)nc2n(-c3c(C)cc(C)cc3C)c3ncccc3n12 [Example 233, Benzyl-ethyl-[2-trifluoromethyl-8-(2,4,6-trimethyl-phenyl)-8H-1,3a,7,8-tetraaza-cyclopenta[α]inden-3-ylmethyl]-amine]
5 | < 10000 | Cc1cc(C)c(-n2c3ncccc3n3c(CN(CCc4ccccc4)CC(F)(F)F)c(C(F)(F)F)nc23)c(C)c1 [Example 234, Phenethyl-(2,2,2-trifluoro-ethyl)-[2-trifluoromethyl-8-(2,4,6-trimethyl-phenyl)-8H-1,3a,7,8-tetraaza-cyclopenta[α]inden-3-ylmethyl]-amine]
6 | < 10000 | CCCCN(Cc1ccccc1)Cc1c(C(F)(F)F)nc2n(-c3c(C)cc(C)cc3C)c3ncccc3n12 [Example 235, Benzyl-butyl-[2-trifluoromethyl-8-(2,4,6-trimethyl-phenyl)-8H-1,3a,7,8-tetraaza-cyclopenta[α]inden-3-ylmethyl]-a mine]
7 | < 10000 | CCCN(Cc1ccccc1)Cc1c(C(F)(F)F)nc2n(-c3c(C)cc(C)cc3C)c3ncccc3n12 [Example 236, Benzyl-propyl-[2-trifluoromethyl-8-(2,4,6-trimethyl-phenyl)-8H-1,3a,7,8-tetraaza-cyclopenta[α]inden-3-ylmethyl]-amine]
8 | < 100 | CCc1nc2n(-c3c(C)cc(C)cc3C)c3ncccc3n2c1CN(CC1CC1)CC1CC1 [Example 246, Bis-cyclopropylmethyl-[2-ethyl-8-(2,4,6-trimethyl-phenyl)-8H-1,3a,7,8-tetraaza-cyclopenta[α]inden-3-ylmethyl]-amine]
9 | < 100 | CCCN(Cc1c(CC)nc2n(-c3c(C)cc(C)cc3C)c3ncccc3n12)CC1CC1 [Example 247, Cyclopropylmethyl-[2-ethyl-8-(2,4,6-trimethyl-phenyl)-8H-1,3a,7,8-tetraaza-cyclopenta[α]inden-3-ylmethyl]-propyl-amine]
10 | < 100 | CCc1nc2n(-c3c(C)cc(C)cc3C)c3ncccc3n2c1CN(CC)CCc1ccccc1 [Example 248, Ethyl-[2-ethyl-8-(2,4,6-trimethyl-phenyl)-8H-1,3a,7,8-tetraaza-cyclopenta[α]inden-3-ylmethyl]-phenethyl-amine]
11 | < 100 | C=CCN(CCC)Cc1c(CC)nc2n(-c3c(C)cc(C)cc3C)c3ncccc3n12 [Example 249, Allyl-[2-ethyl-8-(2,4,6-trimethyl-phenyl)-8H-1,3a,7,8-tetraaza-cyclopenta[α]inden-3-ylmethyl]-propyl-amine]
12 | < 1000 | CCc1nc2n(-c3c(C)cc(C)cc3C)c3ncccc3n2c1CN(CC)CC1CC1 [Example 250, Cyclopropylmethyl-ethyl-[2-ethyl-8-(2,4,6-trimethyl-phenyl)-8H-1,3a,7,8-tetraaza-cyclopenta[α]inden-3-ylmethyl]-amine]
13 | < 1000 | C=CCN(CC=C)Cc1c(CC)nc2n(-c3c(C)cc(C)cc3C)c3ncccc3n12 [Example 251, Diallyl-[2-ethyl-8-(2,4,6-trimethyl-phenyl)-8H-1,3a,7,8-tetraaza-cyclopenta[α]inden-3-ylmethyl]-amine]
14 | < 1000 | CCCN(CCC1CC1)Cc1c(CC)nc2n(-c3c(C)cc(C)cc3C)c3ncccc3n12 [Example 252, (2-Cyclopropyl-ethyl)-[2-ethyl-8-(2,4,6-trimethyl-phenyl)-8H-1,3a,7,8-tetraaza-cyclopenta[α]inden-3-ylmethyl]-propyl-amine]
15 | < 10000 | CCC(CC)NCc1c(C)nc2n(-c3c(C)cc(C)cc3Cl)c3ncccc3n12 [Example 279, [8-(2-Chloro-4,6-dimethyl-phenyl)-2-methyl-8H-1,3a,7,8-tetraaza-cyclopenta[α]inden-3-ylmethyl]-(1-ethyl-propyl)-amine]
16 | < 100 | CCCN(CC1CC1)C(=O)c1c(C)nc2n(-c3c(C)cc(C)cc3C)c(Cl)cn12 [Example 283, 6-Chloro-2-methyl-7-(2,4,6-trimethyl-phenyl)-7H-imidazo[1,2-a]imidazole-3-carboxylic acid cyclopropylmethyl-propyl-amide]
17 | < 100 | CCCN(Cc1c(C)nc2n(-c3c(C)cc(C)cc3C)c(Cl)cn12)CC1CC1 [Example 284, [6-Chloro-2-methyl-7-(2,4,6-trimethyl-phenyl)-7H-imidazo[1,2-a]imidazol-3-ylmethyl]-cyclopropylmethyl-propyl-amine]
18 | < 1000 | CCCN(CC1CC1)C(=O)c1c(CC)nc2n(-c3ccc(C(C)C)cc3Br)c(Cl)cn12 [Example 285, 6-Chloro-2-ethyl-7-(2-bromo-4-isopropylphenyl)-7H-imidazo[1,2-a]imidazole-3-carboxylic acid N-cyclopropylmethyl-N-propylamide]
19 | < 10 | CCc1nc2n(-c3ccc(Cl)cc3Cl)c(Cl)cn2c1C(=O)N(CC1CC1)CC(F)(F)F [Example 286, 6-Chloro-2-ethyl-7-(2,4-dichlorophenyl)-7H-imidazo[1,2-a]imidazole-3-carboxylic acid N-cyclopropylmethyl-N-(2,2,2-trifluoroethyl)amide]
20 | < 10 | CCCN(CCC)C(=O)c1c(CC)nc2n(-c3ccc(Cl)cc3Cl)c(Cl)cn12 [Example 287, 6-Chloro-2-ethyl-7-(2,4-dichlorophenyl)-7H-imidazo[1,2-a]imidazole-3-carboxylic acid N,N-dipropylamide]
21 | < 100 | CCCN(CCC)Cc1c(CC)nc2n(-c3ccc(Cl)cc3Cl)c(Cl)cn12 [Example 288, 3-[(N,N-Dipropylamino)methyl]-6-chloro-2-ethyl-7-(2,4-diclorophenyl)-7H-imidazo[1,2-a]imidazole]
22 | < 100 | CCc1nc2n(-c3ccc(Cl)cc3Cl)c(Cl)cn2c1CN(CC1CC1)CC(F)(F)F [Example 289, 3-[(N-Cyclopropylmethyl-N-(2,2,2-trifluoroethyl)amino)methyl]-6-chloro-2-ethyl-7-(2,4-diclorophenyl)-7H-imidazo[1,2-a]imidazole]
23 | < 100 | CCCN(CC1CC1)C(=O)c1c(CC)nc2n(-c3c(C)cc(C)cc3C)c(Cl)cn12 [Example 290, 6-Chloro-2-ethyl-7-(2,4,6-trimethylphenyl)-7H-imidazo[1,2-a]imidazole-3-carboxylic acid N-cyclopropylmethyl-N-propylamide]
24 | < 100 | CCCCN(CC)C(=O)c1c(CC)nc2n(-c3c(C)cc(C)cc3C)c(Cl)cn12 [Example 291, 6-Chloro-2-ethyl-7-(2,4,6-trimethylphenyl)-7H-imidazo[1,2-a]imidazole-3-carboxylic acid N-butyl-N-ethylamide]
25 | < 100 | CCCN(CCC)C(=O)c1c(CC)nc2n(-c3c(C)cc(C)cc3C)c(Cl)cn12 [Example 292, 6-Chloro-2-ethyl-7-(2,4,6-trimethylphenyl)-7H-imidazo[1,2-a]imidazole-3-carboxylic acid N,N-dipropylamide]
26 | < 1000 | CCc1nc2n(-c3c(C)cc(C)cc3C)c(Cl)cn2c1C(=O)N(CC)CC [Example 293, 6-Chloro-2-ethyl-7-(2,4,6-trimethylphenyl)-7H-imidazo[1,2-a]imidazole-3-carboxylic acid N,N-diethylamide]
27 | < 1000 | CCCCN(CC)Cc1c(CC)nc2n(-c3c(C)cc(C)cc3C)c(Cl)cn12 [Example 294, 3-[(N-Butyl-N-ethylamino)methyl]-6-chloro-2-ethyl-7-(2,4,6-trimethylphenyl)-7H-imidazo[1,2-a]imidazole]
28 | < 1000 | C=CCN(CC=C)C(=O)c1c(CC)nc2n(-c3c(C)cc(C)cc3C)c(Cl)cn12 [Example 295, 6-Chloro-2-ethyl-7-(2,4,6-trimethylphenyl)-7H-imidazo[1,2-a]imidazole-3-carboxylic acid N,N-diallylamide]
29 | < 10 | CCc1nc2n(-c3c(C)cc(C)cc3C)c(Cl)cn2c1C(=O)N(CC1CC1)CC(F)(F)F [Example 296, 6-Chloro-2-ethyl-7-(2,4,6-trimethylphenyl)-7H-imidazo[1,2-a]imidazole-3-carboxylic acid N-cyclopropylmethyl-N-(2,2,2-trifluoroethyl)amide]
30 | < 1000 | CCc1nc2n(-c3c(C)cc(C)cc3C)c(Cl)cn2c1C(=O)N(CC)Cc1ccncc1 [Example 297, 6-Chloro-2-ethyl-7-(2,4,6-trimethylphenyl)-7H-imidazo[1,2-a]imidazole-3-carboxylic acid N-ethyl-N-(pyridin-4-yl)methylamide]
